# Like-named read-outs stand apart in the source and are kept apart here.
# What was measured:
# LNCap cells = test: Cell viability assay (CellTiterGlo, 6 days) LNCap; assay type: cell-based; details: Homo sapiens, 144 h
# Method: Cell viability assay: LNCap, 22Rv1, and T47D cells were seeded at a density of 1500-2000 cells/well in 96 well plates, and a ‘T0’ (timepoint 0) was included along with the assay plate. The plates were then incubated at 37° C., 5% CO2 in a cell culture incubator overnight. On the next day, the ‘T0’ plate was assayed using CellTiterGlo (Promega, Inc) according to the manufacturer's instructions. The appropriate compounds were diluted in DMSO and added to the assay plate (final DMSO concentration of 0.2%) on the next day. The assay plates were incubated for 6 days at 37° C., 5% CO2. After the incubation period, the plates were assayed using CellTiterGlo (Promega, Inc) according to the manufacturer's instructions and luminescence was read on the EnVision plate reader. Inhibition the tested compounds was determined by the following formula: Inhibition rate (%)=(1−(RLU compound−RLU day0)/(RLU control−RLU day0))*100%. GraphPadPrism was used to analyze the data and determine absolute IC50 values.
# Human recombinant PARP1 = Human recombinant PARP1 (Homo sapiens, UniProt P09874); test: RBC HotSpot PARP1 assay (radioisotope-based filter binding); assay type: biochemical
# Method: The following methods are for evaluating the in vitro biology properties of the test articles. • a. RBC HotSpot Poly(ADP-ribose) Polymerases 1 (PARP1) and Poly(ADP-ribose) Polymerases 2 (PARP2) Assays: The assay was conducted at Reaction Biology Corporation (RBC; Malvern, PA). The assay principle is radioisotope-based filter binding assay where incorporation of radioisotope-labeled NAD^+ into the substrate captured on filter is detected after washout free NAD^+. Data were analyzed using Excel and GraphPad Prism software for IC50 curve fits. Each assay was conducted with PJ34 as a positive control. PARP1 assay: Human recombinant PARP1 at a final concentration of 2.5 nM was combined with histone H4 (20 μM) and test articles at various concentrations in reaction buffer (50 mM Tris-HCL, pH 8.0, 50 mM NaCl, 10 mM MgCl2, 1 mM DTT, 1% DMSO, and 20 μg/mL activated DNA). The solution was inoculated for 20 min at room temperature and the reaction initiated by adding [adenylate-^32P]-Nicotinamide Adenine Dinucleotide, ^32P-NAD^+ at a final concentration of 10 μM. After incubation for 2 hrs at room temperature, the reaction mixture was filtered and washed with 0.75% phosphoric acid for radioactivity detection. • ii. PARP2 assay: Human recombinant PARP2 at a final concentration of 2.5 nM was combined with histone H3 (20 μM) and test articles at various concentrations in reaction buffer (50 mM Tris-HCL, pH 8.0, 50 mM NaCl, 10 mM MgCl2, 1 mM DTT, 1% DMSO, and 20 μg/mL activated DNA). The solution was inoculated for 20 min at room temperature and the reaction was initiated by adding [adenylate-^32P]-Nicotinamide Adenine Dinucleotide, ^32P-NAD^+ at a final concentration of 10 μM. After incubation for 2 hrs at room temperature, the reaction mixture was filtered and washed with 0.75% phosphoric acid for radioactivity detection. • b. AR binding assay: AR in LNCaP cytosol was used for determining the binding affinity of test articles and the reference compound—progesterone (Sigma, Cat: E2785, St. Louis, MO). IC50 s were determined using 8 concentrations/compound. Cytosol is plated at 200 μg/well (100 μL) into a 96-well conical polypropylene plate (Agilent, Cat: 5042-1385, Santa Clara, CA) and mixed with 3 μL of test compound. After adding 100 μL of ^3H-methyltrienolone (PerkinElmer, Cat: NET590250UC, San Jose, CA), the plate was sealed and shaken at 300 rpm at 4° C. for 24 hours. Post incubation, 100 μL of radioligand adsorption buffer containing 10 mM Tris-HCl, pH 7.4; 1.5 mM EDTA; 1 mM DTT; 0.25% charcoal; 0.0025% dextran was added to individual wells. Plate was shaken for 15 min at 4° C. followed by centrifugation at 3000 rpm for 30 min at 4° C. 150 μL of supernatant is transferred into scint-tube (PerkinElmer, Cat: 6000192) and mixed with 2 mL of Ultima Gold Cocktail (PerkinElmer, Cat: 6013329). Radioactivity is counted using a TriCarb 2910 TR scintillation counter (PerkinElmer). Inhibition of the radioactivity by test articles was calculated using the equation below: % Inhibition=(1−(Assay well−Average_LC)/(Average_HC−Average_LC))×100%. • IC50 values (Table 6) were calculated and graphed using the model “log(inhibitor) vs. response—Variable slope” included in GraphPad Prism 5 (San Diego, CA). The Ki values were further calculated using the equation below where [L] is the radioligand concentration (1 nM) used in this study. Kd value was 0.332 nM. Ki=IC50/(1+[L]/Kd) • c. AR transactivation: Human AR cloned into a CMV vector backbone is used for the transactivation study. HEK-293 cells are plated at 80,000 cells per well of a 24 well plate in DME+5% csFBS. Twenty four hours later, the cells are transfected using Lipofectamine (Invitrogen, Carlsbad, CA) with 0.25 μg GRE-LUC, 0.01 μg CMV-LUC (renilla luciferase) and 25 ng of the AR in OPTIMEM medium. The cells are treated 24 hrs after transfection with various ligands (10^−12 to 10^−5 M final concentrations) and luciferase assay performed 48 hours after transfection. […]
# Sequence of Human recombinant PARP1 (P09874 whole entry): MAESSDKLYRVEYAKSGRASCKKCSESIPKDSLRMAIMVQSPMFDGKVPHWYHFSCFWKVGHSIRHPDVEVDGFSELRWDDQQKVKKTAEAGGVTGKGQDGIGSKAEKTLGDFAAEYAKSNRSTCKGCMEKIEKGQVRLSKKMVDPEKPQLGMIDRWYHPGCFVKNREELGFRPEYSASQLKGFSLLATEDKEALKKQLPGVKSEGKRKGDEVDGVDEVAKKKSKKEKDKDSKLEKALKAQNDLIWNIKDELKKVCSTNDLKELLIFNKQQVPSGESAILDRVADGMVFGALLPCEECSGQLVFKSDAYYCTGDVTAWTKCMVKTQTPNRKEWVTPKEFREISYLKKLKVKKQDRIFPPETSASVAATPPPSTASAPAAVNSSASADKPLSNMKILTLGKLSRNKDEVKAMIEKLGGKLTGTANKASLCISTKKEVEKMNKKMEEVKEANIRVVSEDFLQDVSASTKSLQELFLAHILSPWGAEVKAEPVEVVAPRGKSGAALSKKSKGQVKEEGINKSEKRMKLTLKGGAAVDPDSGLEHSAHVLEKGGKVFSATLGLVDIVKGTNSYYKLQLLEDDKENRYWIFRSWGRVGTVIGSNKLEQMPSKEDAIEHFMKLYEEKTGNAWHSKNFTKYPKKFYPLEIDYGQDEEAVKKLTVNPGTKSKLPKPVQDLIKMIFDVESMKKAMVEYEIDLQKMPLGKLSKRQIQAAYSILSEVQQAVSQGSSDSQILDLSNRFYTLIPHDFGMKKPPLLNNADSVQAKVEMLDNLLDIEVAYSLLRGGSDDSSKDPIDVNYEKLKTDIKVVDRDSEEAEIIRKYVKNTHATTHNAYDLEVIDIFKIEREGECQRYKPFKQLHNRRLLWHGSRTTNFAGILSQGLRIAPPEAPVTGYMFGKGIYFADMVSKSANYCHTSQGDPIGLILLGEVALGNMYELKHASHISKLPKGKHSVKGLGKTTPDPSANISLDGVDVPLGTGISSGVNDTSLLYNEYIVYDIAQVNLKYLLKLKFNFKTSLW
SMILES,IC50 (LNCap cells; Table 8),"IC50 (Human recombinant PARP1; Table 9, read-out: PARP1)",IC50 (LNCap cells; Table 7),"IC50 (Human recombinant PARP1; Table 5, in vitro results, read-out: PARP1 IC50)"
"CC#C[C@]1(O)CC[C@H]2[C@@H]3CCC4=CC(=O)CCC4=C3[C@@H](c3ccc(N(C)CCCCCC(=O)NCCOCCOCC(=O)N4CCN(C(=O)c5cc(Cc6n[nH]c(=O)c7ccccc67)ccc5F)CC4)cc3)C[C@@]21C [Compound 1429, N-(2-(2-(2-(4-(2-fluoro-5-((4-oxo-3,4-dihydrophthalazin-1-yl)methyl)benzoyl)piperazin-1-yl)-2-oxoethoxy)ethoxy)ethyl)-6-((4-((8S,11R,13S,14S,17S)-17-hydroxy-13-methyl-3-oxo-17-(prop-1-ynyl)-2,3,6,7,8,11,12,13,14,15,16,17-dodecahydro-1H-cyclopenta[a]phenanthren-11-yl)phenyl)(methyl)amino)hexanamide]",> 10 µM,< 0.001 µM,,
"CC(=O)O[C@]1(C(C)=O)CC[C@H]2[C@@H]3CCC4=CC(=O)CCC4=C3[C@@H](c3ccc(N(C)CCCCCC(=O)NCCOCCOCC(=O)N4CCN(C(=O)c5cc(Cc6n[nH]c(=O)c7ccccc67)ccc5F)CC4)cc3)C[C@@]21C [Compound 1384, (8S,11R,13S,14S,17R)-17-acetyl-11-(4-((6-(2-(2-(2-(4-(2-fluoro-5-((4-oxo-3,4-dihydrophthalazin-1-yl)methyl)benzoyl)piperazin-1-yl)-2-oxoethoxy)ethoxy)ethylamino)-6-oxohexyl)(methyl)amino)phenyl)-13-methyl-3-oxo-2,3,6,7,8,11,12,13,14,15,16,17-dodecahydro-1H-cyclopenta[a]phenanthren-17-yl acetate]",1 to 10 µM,0.001 to 0.01 µM,,
"C[C@]12Cc3cn[nH]c3C[C@@H]1CC[C@@H]1[C@@H]2CC[C@]2(C)[C@@H](OCCCCCC(=O)N3CCN(C(=O)c4cc(Cc5n[nH]c(=O)c6ccccc56)ccc4F)CC3)CC[C@@H]12 [Compound 1394, 4-(3-(4-(6-(((1S,3aS,3bR,5aS,10aS,10bS,12aS)-10a,12a-dimethyl-1,2,3,3a,3b,4,5,5a,6,7,10,10a,10b,11,12,12a-hexadecahydrocyclopenta[5,6]naphtho[1,2-f]indazol-1-yl)oxy)hexanoyl)piperazine-1-carbonyl)-4-fluorobenzyl)phthalazin-1(2H)-one]",,0.01 to 0.1 µM,0.1 to 1 µM,
"CC#C[C@]1(O)CC[C@H]2[C@@H]3CCC4=CC(=O)CCC4=C3[C@@H](c3ccc(N(C)CCCCCC(=O)N4CCN(C(=O)c5cc(Cc6n[nH]c(=O)c7ccccc67)ccc5F)CC4)cc3)C[C@@]21C [Compound 135, 4-(4-fluoro-3-(4-(6-((4-((8S,11R,13S,14S,17S)-17-hydroxy-13-methyl-3-oxo-17-(prop-1-ynyl)-2,3,6,7,8,11,12,13,14,15,16,17-dodecahydro-1H-cyclopenta[a]phenanthren-11-yl)phenyl)(methyl)amino)hexanoyl)piperazine-1-carbonyl)benzyl)phthalazin-1(2H)-one]",0.1 to 1 µM,0.001 to 0.01 µM,,
"Cn1ncnc1C1c2n[nH]c(=O)c3cc(F)cc(c23)N[C@@H]1c1ccc(NC(=O)CCCCCO[C@@H]2CC[C@H]3[C@@H]4CC[C@H]5CCCC[C@]5(C)[C@H]4CC[C@]23C)cc1 (stereo partly drawn) [Compound 1128, 6-((5R,8R,9S,10S,13S,14S,17R)-10,13-dimethylhexadecahydro-1H-cyclopenta[a]phenanthren-17-yloxy)-N-(4-((8S)-5-fluoro-9-(1-methyl-1H-1,2,4-triazol-5-yl)-3-oxo-3,7,8,9-tetrahydro-2H-pyrido[4,3,2-de]phthalazin-8-yl)phenyl)hexanamide]",,,0.1 to 1 µM,0.252 µM
"C[C@@]12CCC(=O)C[C@H]1CC[C@H]1[C@H]2CC[C@]2(C)[C@@H]1CC[C@H]2OCCCCCCNC(=O)c1cc(Cc2n[nH]c(=O)c3ccccc23)ccc1F (stereo in doubt) [Compound 1426, N-(6-((5R,8S,9R,10R,13R,14R,17R)-10,13-dimethyl-3-oxohexadecahydro-1H-cyclopenta[a]phenanthren-17-yloxy)hexyl)-2-fluoro-5-((4-oxo-3,4-dihydrophthalazin-1-yl)methyl)benzamide]",,> 0.1 µM,1 to 10 µM,
"C[C@]12C[C@H](CCCCCC(=O)N3CCN(C(=O)c4cc(Cc5n[nH]c(=O)c6ccccc56)ccc4F)CC3)C3=C4CCC(=O)C=C4CC[C@H]3[C@@H]1CCC2O (stereo partly drawn) [Compound 138, 4-(4-fluoro-3-(4-(6-((8S,11S,13S,14S)-17-hydroxy-13-methyl-3-oxo-2,3,6,7,8,11,12,13,14,15,16,17-dodecahydro-1H-cyclopenta[a]phenanthren-11-yl)hexanoyl)piperazine-1-carbonyl)benzyl)phthalazin-1(2H)-one]",,< 0.001 µM,0.1 to 1 µM,
"C[C@]12CC[C@H]3[C@@H](CCC4=CC(=O)CC[C@@]43C)[C@@H]1CC[C@@H]2C(=O)COCCCCCC(=O)N1CCN(C(=O)c2cc(Cc3n[nH]c(=O)c4ccccc34)ccc2F)CC1 [Compound 1386, 4-(3-(4-(6-(2-((8S,9S,10R,13S,14S,17S)-10,13-dimethyl-3-oxo-2,3,6,7,8,9,10,11,12,13,14,15,16,17-tetradecahydro-1H-cyclopenta[a]phenanthren-17-yl)-2-oxoethoxy)hexanoyl)piperazine-1-carbonyl)-4-fluorobenzyl)phthalazin-1(2H)-one]",0.1 to 1 µM,0.001 to 0.01 µM,,
"CC(=O)O[C@]1(C(C)=O)CC[C@H]2[C@@H]3CCC4=CC(=O)CCC4=C3[C@@H](c3ccc(N(C)CCCCCC(=O)N4CCN(C(=O)c5cc(Cc6n[nH]c(=O)c7ccccc67)ccc5F)CC4)cc3)C[C@@]21C [Compound 1378, (8S,11R,13S,14S,17R)-17-acetyl-11-(4-((6-(4-(2-fluoro-5-((4-oxo-3,4-dihydrophthalazin-1-yl)methyl)benzoyl)piperazin-1-yl)-6-oxohexyl)(methyl)amino)phenyl)-13-methyl-3-oxo-2,3,6,7,8,11,12,13,14,15,16,17-dodecahydro-1H-cyclopenta[a]phenanthren-17-yl acetate]",0.1 to 1 µM,0.001 to 0.01 µM,,
